What was measured:
[1] = tested on: zebrafish AHR1A, AHR1B, and AHR2; test: Antisense morpholino knockdown, any of the morpholinos; format: in vivo
[2] = tested on: 21 AHR-related, cardiac stress-related and oxidative stress gene transcripts
[3] = target: T1, AHR2 (Danio rerio, UniProt Q9YGV3); test: Antisense morpholino knockdown of AHR2 in Tg; format: in vivo, zebrafish; details: for expression in the skin and vasculature in AHR2 morphants: not shown
T1 sequence (Q9YGV3 1-1027): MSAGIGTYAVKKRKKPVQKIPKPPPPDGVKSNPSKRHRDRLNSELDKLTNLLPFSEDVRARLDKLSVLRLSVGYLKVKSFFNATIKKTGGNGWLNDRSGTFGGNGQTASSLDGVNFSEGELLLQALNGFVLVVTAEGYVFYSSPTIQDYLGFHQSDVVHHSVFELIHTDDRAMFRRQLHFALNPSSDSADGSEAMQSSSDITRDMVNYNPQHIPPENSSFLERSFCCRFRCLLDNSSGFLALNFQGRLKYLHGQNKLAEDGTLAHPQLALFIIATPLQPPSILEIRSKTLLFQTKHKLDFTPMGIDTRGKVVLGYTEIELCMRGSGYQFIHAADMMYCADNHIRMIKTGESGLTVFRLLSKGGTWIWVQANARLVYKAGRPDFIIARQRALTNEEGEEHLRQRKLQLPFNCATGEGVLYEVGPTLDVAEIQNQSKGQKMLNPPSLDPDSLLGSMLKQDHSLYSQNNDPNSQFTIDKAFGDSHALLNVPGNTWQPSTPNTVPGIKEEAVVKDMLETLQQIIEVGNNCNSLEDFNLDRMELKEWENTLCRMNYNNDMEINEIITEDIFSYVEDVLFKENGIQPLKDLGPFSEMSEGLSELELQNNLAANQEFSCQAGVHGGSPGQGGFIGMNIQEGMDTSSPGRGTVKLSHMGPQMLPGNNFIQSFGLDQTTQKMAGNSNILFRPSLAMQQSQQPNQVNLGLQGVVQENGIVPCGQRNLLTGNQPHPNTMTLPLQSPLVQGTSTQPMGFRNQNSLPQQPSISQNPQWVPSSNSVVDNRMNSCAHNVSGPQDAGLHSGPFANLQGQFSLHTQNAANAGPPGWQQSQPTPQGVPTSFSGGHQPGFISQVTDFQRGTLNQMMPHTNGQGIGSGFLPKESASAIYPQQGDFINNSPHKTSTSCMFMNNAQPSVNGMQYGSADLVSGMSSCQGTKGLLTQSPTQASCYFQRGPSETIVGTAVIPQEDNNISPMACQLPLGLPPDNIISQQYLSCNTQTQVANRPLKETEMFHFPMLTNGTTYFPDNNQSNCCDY

[4] = tested on: arg2; details: 48 hpf embryos; dependent on AHR2; ref Goodale et al., 2015; cited from earlier work
[5] = tested on: cyp1a/GFP; details: ref Goodale et al., 2015; cited from earlier work
[6] = tested on: zebrafish embryos; details: zebrafish embryos exposed 6 to 120 hpf; beyond the range of concentrations tested and beyond the range of accuracy of the EC50 model
[7] = tested on: AHR1A; test: Antisense morpholino knockdown of AHR1A in Tg; format: in vivo, zebrafish; details: for cyp1a/GFP expression in the livers in AHR1A morphants: single concentration
[8] = tested on: zebrafish embryos; test: animal or person; details: Danio rerio, read-out: EC50, calculated value beyond the range of concentrations tested, zebrafish embryos exposed 6 to 120 hpf; beyond the range of concentrations tested and beyond the range of accuracy of the EC50 model
[9] = tested on: cyp1a; details: transgenic Japanese Medaka; ref Ng and Gong, 2013; cited from earlier work

O=[N+]([O-])c1cc([N+](=O)[O-])c2ccc3cccc4ccc1c2c43 [1,3-dinitropyrene]
cyp1a/GFP expression in the yolk after injection with any of the morpholinos [1]: did not appear to decrease
expression of nppb, increase ([2]; 3.56 µM, 120 hpf): 23 fold
expression of myl7, significant increase ([2]; 48 hpf): 2 fold
number of differentially expressed genes ([2]; 48 hpf, suite of 21 genes): 4

O=[N+]([O-])c1ccc2ccc3c([N+](=O)[O-])ccc4ccc1c2c43 [1,6-dinitropyrene]
cyp1a/GFP expression in the vasculature and/or skin (and neuromasts, for 7-nitrobenzo[k]fluoranthene) following knockdown of AHR2 [3]: near-complete inhibition
toxicity in AHR2 morphants [3]: Decreased toxicity
expression in the skin and vasculature in AHR2 morphants [3]: reduced
expression of cyp1a, cyp1b1, cyp1c1, and cyp1c2 ([2]; 5 µM, at 48 and 120 hpf, vs DMSO control): Significantly increased expression
expression of cyp1a1, increase ([2]; 48 hpf, compared to the DMSO exposed controls): 1,963 fold
expression of arg2 ([2]; 120 hpf): significantly increased expression

O=C1c2ccccc2-c2cccc3cccc1c23 [1,9-benz-10-anthrone]
arg2 expression [4]: significantly elevated
cyp1a/GFP expression in the syncytial layer of the yolk [5]: previously observed

O=[N+]([O-])c1ccc2cc3ccccc3cc2c1 [2-nitroanthracene]
EC50, calculated value beyond the range of concentrations tested [6]: beyond the tested range of concentrations

O=[N+]([O-])c1c2c(cc3ccccc13)-c1ccc([N+](=O)[O-])c3cccc-2c13 [3,7-dinitrobenzo[k]fluoranthene]
cyp1a/GFP expression in the vasculature and/or skin (and neuromasts, for 7-nitrobenzo[k]fluoranthene) following knockdown of AHR2 [3]: near-complete inhibition
expression in the skin and vasculature in AHR2 morphants [3]: reduced

O=[N+]([O-])c1ccc2c3c(cccc13)-c1ccccc1-2 [3-nitrofluoranthene]
cyp1a/GFP expression in the yolk after injection with any of the morpholinos [1]: did not appear to decrease

O=[N+]([O-])c1ccc2c3c(cccc13)CC2 [5-nitroacenaphthalene]
observed developmental toxicity in AHR1A morphants [7]: did not result in a substantial decrease
cyp1a/GFP expression in the livers in AHR1A morphants [7]: eliminated
expression of arg2 ([2]; 120 hpf): significantly increased expression

O=[N+]([O-])c1c2ccccc2cc2c1ccc1ccccc12 [7-nitrobenz[a]anthracene]
EC50 [8]: 238 µM
EC50, calculated value beyond the range of concentrations tested [6]: beyond the tested range of concentrations
cyp1a/GFP expression in the vasculature and/or skin (and neuromasts, for 7-nitrobenzo[k]fluoranthene) following knockdown of AHR2 [3]: near-complete inhibition
GFP expression in AHR2 morphants, vasculature ([3]; at both 48 and 120 hpf): Decreased GFP expression

O=[N+]([O-])c1c2c(cc3ccccc13)-c1cccc3cccc-2c13 [7-nitrobenzo[k]fluoranthene]
cyp1a/GFP expression in the livers in AHR1A morphants [7]: eliminated
cyp1a/GFP expression in the vasculature and/or skin (and neuromasts, for 7-nitrobenzo[k]fluoranthene) following knockdown of AHR2 [3]: near-complete inhibition
GFP expression in AHR2 morphants, skin and neuromasts ([3]; at both 48 and 120 hpf): Decreased GFP expression
expression of cyp1a, cyp1b1, and cyp1c1 ([2]; 50 µM, at 120 hpf, vs DMSO control): Significantly increased expression
expression of arg2 ([2]; 120 hpf): significantly increased expression

O=[N+]([O-])c1cc2ccccc2c2ccccc12 [9-nitrophenanthrene]
cyp1a/GFP expression in the livers in AHR1A morphants [7]: eliminated

c1ccc2c(c1)oc1ccccc12 [Dibenzofuran]
EC50 [8]: 228 µM
EC50, calculated value beyond the range of concentrations tested [6]: beyond the tested range of concentrations

Clc1cc2c(cc1Cl)Oc1cc(Cl)c(Cl)cc1O2 [TCDD]
expression of cyp1a in the neuromasts [9]: observed previously

— article PMC5414855 (Toxicological Sciences, 2017)
